Measurements published in a melting point compilation (Tetko et al.; mined from patent text by program, amines drawn as free bases though some values may be those of a salt).

SMILES	melting point [°C]
CCCCS(=O)(=O)NC(=O)/C=C/c1c(C)nn(C)c1-n1ccc2cc(Cl)cnc21	245 to 248
COC(=O)C(c1ccc(Cl)cc1)C(OC)OC (stereo unspecified)	61 to 62
CC(=O)C(Cc1cccc(Br)c1)NC(=O)c1ccc(C)cc1 (stereo unspecified)	106 to 107
COc1ccc(-c2cc(=O)n(CC=Cc3ccc(F)cc3F)nc2-c2ccc(OC)cc2)cc1	107 to 108
COc1ccc(C(=O)Nc2cc(C)cc(C)c2)cc1NC(=S)Nc1cccc(C)c1	188 to 189
COc1ccc2[nH]ccc2c1Cl	112 to 113
CC(c1ccccc1)N1Cc2cncn2C(c2ccc(C#N)cc2)C1=O (stereo unspecified)	157 to 158
CCCCC1C(=O)N(C(=O)NCCc2ccc(S(=O)(=O)NC(=O)NC3CCC(C)CC3)cc2)CCC1C (stereo unspecified)	131 to 133
CCCCCCCCCCCCCCCCCCN(C)CC(O)COC(c1ccccc1)(c1ccccc1)c1ccccc1 (stereo unspecified)	45
O=C(CNC(=O)c1cc([N+](=O)[O-])c(F)cc1Cl)OCc1ccccc1	108 to 110
CCc1nc2c(N)nc3ccccc3c2n1CCC1(O)CCOCC1	243 to 244
CCC(=O)N[C@H]1CC[C@H](CCN2CCN(c3nccc4c3OCC4)CC2)CC1	196
CCOC(=O)C1CCc2ccc(N)c(C)c2O1 (stereo unspecified)	82 to 85
S=C(Nc1ccc(Cl)cn1)N[C@@H]1C[C@@H]1c1ccccc1	190 to 191
COc1ccc([C@]2(C)CNC(=O)O2)cc1O	142
N#CNC(=N)CCCSc1nccc(NC(N)=NCC(F)(F)F)n1	224
O=c1ccc(-c2ccc(-n3cnc4c3CCCC4)cc2)n[nH]1	266 to 267
CC(C)NCC(O)COc1ccc(OCCn2cccn2)cc1 (stereo unspecified)	37 to 39
c1ccc(-c2cc(CCC3CCNC3)c3ccccc3n2)cc1 (stereo unspecified)	140
CCOc1cc(F)ccc1-c1noc2c(Cl)c(OC)ccc12	150 to 152
Cc1ccc(-c2nccc3c(CC(=O)O)cccc23)cc1	223 to 224
COc1cc([N+](=O)[O-])c(F)cc1Cl	69 to 70
CCc1ccc(-c2nc3ccccc3[nH]2)cc1	258
COc1ccc(CCNC(=O)C(=O)NCc2ccccn2)cc1OC1CCCC1	141 to 143

SMILES	melting point [°C]
CCCn1c(COC)nc2c(N)nc3ccc(OCCCOC(=O)N4CCOCC4)cc3c21	173 to 174
CCCCCc1cc2c(nc(O)n2CC2CCN(C(=O)C3CC3)CC2)c(N)n1	205 to 207
CC1=C(C)C(=O)C(NCc2ccccc2)=CC1=O	101 to 102
COc1cc(C(=O)Cl)ccc1S(=O)(=O)Cl	86 to 88
COC1(c2cccc(S(=O)(=O)c3ccc4c(c3)sc(=O)n4C)c2)CCOCC1	174 to 176
O=C1NCN(c2ccccc2)C12CCN(CC(O)COc1ccc(F)cc1)CC2 (stereo unspecified)	152 to 154
O=C(NCCO[N+](=O)[O-])c1csc(C(F)(F)F)n1	81 to 82
O=C1CCC(c2ccc(N=C(CCCc3ccccc3)c3ccc(O)cc3O)cc2)=NN1	274 to 280
COC(=O)c1ccc(CCn2ccn(C3CCc4ccccc4C3)c2=S)cc1 (stereo unspecified)	159 to 161
c1ccc2c(c1)Cc1cc(C3(Cn4cncn4)OCCO3)ccc1-2	187
COc1ccc(N2CCOCC2)c2sc(C(=O)NC3CCCCC3=O)nc12 (stereo unspecified)	165
COCC(=O)NNC1=Nc2sc(Cl)cc2C(c2ccccc2[N+](=O)[O-])=NC1	198 to 200
Cc1c(N2CC[C@H](CNC3CC3)C2)c(F)cc2c(=O)c(C(=O)O)cn([C@@H]3C[C@@H]3F)c12	163 to 164
CCCOc1ccccc1-c1nc2cc(N)c(N)cc2c(=O)[nH]1	195 to 197
N#Cc1ccc(C=CC(=O)N2CCc3c([nH]c4ccccc34)C2c2ccc3c(c2)OCO3)cc1 (stereo unspecified)	167
COc1nc(NC(=O)NS(=O)(=O)c2cscc2C)nc(OC)n1	154 to 156
CCCCCN(CCC12CC3CC(CC(C3)C1)C2)C(=O)NCCNc1ccncc1	134
COc1ccc2cc([C@H](C)C(=O)NOCC(=O)N3CCC(CO[N+](=O)[O-])CC3)ccc2c1	45 to 47
O=C(O)c1ccc(C(=O)NOCCC23CC4CC(CC(C4)C2)C3)cc1	197 to 200
Cc1ccc(S(=O)(=O)OCC(O)Cc2cccc(C(C)(C)C)c2O)cc1 (stereo unspecified)	98 to 101
O=C(NCCCCC1N=C(c2ccccc2)OC1=O)OCc1ccccc1 (stereo unspecified)	72 to 73
COCCC1(C(=O)N[C@@H](Cc2ccc(N3C(=O)c4cccc(C#N)c4C3=O)cc2)C(=O)OC)CCCC1	122 to 126
CCOP(=O)(OCC)C(OC)c1ccc(N)cc1 (stereo unspecified)	100 to 101
COC(=O)c1ccc(C(=O)Nc2cc3c4c(c2)CCCC4CCC3)s1	221 to 222

SMILES	melting point [°C]
Cn1cc(-c2nnc(-c3ccncc3)o2)c2ccccc21	212 to 214
CNc1nc(-c2cccc(Br)c2)c2cc(OC)c(OC)cc2n1	246 to 248
CSc1cc(C(=O)O)cc(C(F)(F)F)c1	135 to 140
CCCCCCCNC(=O)N(C)c1cccc(-c2ccc(CC3SC(=O)NC3=O)cc2)c1 (stereo unspecified)	55
CC(C)c1cccc(C(C)C)c1NC(=O)Nc1ccc(-c2ccccc2)nc1-c1ccccc1	206 to 208
Cc1c(C)c2c(c(C)c1OCc1ccccc1)CC[C@@](C)(CO)O2	66 to 69.5
CC(C)(C)C(=O)Nc1cccc(C(F)(F)F)c1	107
CC(C)(C)NC(=O)NC1(C#N)CCC1	212 to 214
COC(=O)C(=O)c1ccc(OCCOc2ccc3ccccc3c2)cc1F	135 to 136
CCCCC(Cc1ccc(OCCNC(=O)c2ccc(-c3cccc(O)c3)cc2)cc1)C(=O)O (stereo unspecified)	98 to 100
CCCOc1ncc(S(C)(=O)=O)cc1-c1nc2c(CC)nn(C[C@@H]3CCCN3C(=O)OC(C)(C)C)c2c(=O)[nH]1	98 to 104
Cc1cc(C(=O)c2ccc(Cl)cc2)ccc1[N+](=O)[O-]	105 to 108
O=C(O)Cc1ccc2[nH]cc(CCNC(=O)OCc3ccccc3)c2c1	116 to 117
Nc1c(-c2cc(Cl)ccc2O)c2c(C(F)(F)F)c(Cl)ccc2[nH]c1=O	139 to 140
Cc1ccc(O)c(Cn2c(NCCCN3CCOCC3)nc3ccc(Cc4c(C)cc(NCCO)cc4C)cc32)n1	162
CCc1nnc(-c2ccc(-c3ccccc3)nc2)n1-c1cccc(C(N)=O)c1C	162 to 163
CC1(C(F)(F)F)NC(c2ncccc2C(=O)O)=NC1=O (stereo unspecified)	180 to 184
C#CCC(CC#C)NC(=O)OC(C)(C)C	64 to 67
Clc1ccc2nc(Cl)c(-c3ccccc3)cc2c1	147 to 149
FC(F)(F)Oc1ccc(Nc2nc(-c3ccccc3)cc(N3CCOCC3)n2)cc1	260 to 262
CCOC(=O)C(C#N)=Cc1c(Cl)n(Cc2ccc(Cl)cc2)c2ccccc12	179 to 180
CC(=O)[NH+]([O-])C[C@@H]1CN(c2ccc(N3CCOCC3)c(F)c2)C(=O)O1 (stereo partly specified)	202 to 204
COC(=O)C1=C(C)NC2=C(C(=O)CN(Cc3ccccc3)C2)C1c1ccccc1C(F)(F)F (stereo unspecified)	225 to 227
